Results from PubChem BioAssay AID2740 (NMMLSC, 2010).
Calls of active or inactive are those of the source.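 How the source made its calls: active means compounds whose fitted half-maximal concentration for changing the GFP signal is at or below a set limit; inactive means the rest.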

Test: TOR pathway RPL19A-GFP modulators, concentration series – cell-based, S. cerevisiae, flow cytometry, MLPCN hits, dose response (AID 2740);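 further: background is signal of the same compound in parental non-GFP s288c yeast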
Conditions: S. cerevisiae RPL19A-GFP strain, flow cytometry fluorescence, 3 h; at 33 µM (top of the series)

Row | SMILES | GFP fluorescence, lower = active (kMESF (background-subtracted))
1 | COc1ccc(C(=O)NC(=S)NNC(=O)c2cnccn2)cc1 | 35.4 (inactive)
2 | O=C(C#Cc1cccc([N+](=O)[O-])c1)c1ccccc1 | 41.3 (inactive)
3 | CC1=C/C(=N\OS(=O)(=O)c2ccccc2)C(C)=CC1=O | 17.1 (inactive)
4 | O=C(Nc1ccc(O)cc1)C1CCCN1S(=O)(=O)c1ccc(F)cc1 (stereo not given) | 45 (inactive)
5 | O=c1oc2cc(Oc3c([N+](=O)[O-])cc(C(F)(F)F)cc3[N+](=O)[O-])ccc2c2c1CCCC2 | 36.1 (inactive)
6 | CCOc1ccccc1/C=c1\sc2ncnn2c1=O | 30.1 (inactive)
7 | CN(C)/C=C/C(=O)c1ccc(-c2ccc(Cl)cc2Cl)o1 | 40.9 (inactive)
8 | CCCOc1ccc(C(=O)NNC(=S)NC(=O)c2ccco2)cc1 | 51 (inactive)
9 | O=C(Oc1oc(-c2ccco2)nc1C=Nc1ccccc1)c1ccoc1 | 46.5 (inactive)
10 | O=C(COc1ccccc1)NNC(=S)NC(=O)c1ccccc1 | 44.4 (inactive)
11 | N#Cc1nccnc1S(=O)(=O)c1cccs1 | 35.5 (inactive)
12 | CCCN1CCc2c(sc(NC(=S)NC(=O)c3ccccc3)c2C#N)C1 | 47.6 (inactive)
13 | COc1cc(NC(=O)c2ccccc2[N+](=O)[O-])ccc1NC(=O)c1cc2ccccc2o1 | 39.2 (inactive)
14 | COc1cc(/C=C2/C(=O)c3cccc([N+](=O)[O-])c3C2=O)c(Br)cc1O | 43.9 (inactive)
15 | CN(C)NC(=S)Nc1ccc(S(=O)(=O)N2CCCCC2)cc1 | 44.8 (inactive)
16 | N/C(=N\OC(=O)c1cc(Br)ccc1Cl)c1ccccn1 | 39.8 (inactive)
17 | O=c1c2sc(-c3ccccc3)cc2nc2n1CCC2 | 20.5 (inactive)
18 | Cc1ccccc1[C@]1(C)ON(c2ccccc2C(F)(F)F)C1=O | 42.8 (inactive)
19 | COc1cccc(/C=N/Nc2ncc(C(F)(F)F)cc2Cl)c1O | 38.7 (inactive)
20 | COCCN1C(=O)/C(=C/c2ccc(N3CCCC3)cc2C)SC1=S | 43 (inactive)
21 | COc1cccc(/C=C/C(=O)c2c(O)cc(C)oc2=O)c1O | 40.4 (inactive)
22 | Cc1sc(/C=C2\C(=O)ON=C2c2ccccc2)cc1Br | 45 (inactive)
23 | O=C(c1ccc(Cl)c([N+](=O)[O-])c1)N1CCN(c2ccccc2)CC1 | 46.4 (inactive)
24 | COc1ccc([N+](=O)[O-])c(S(=O)(=O)c2ccccc2)n1 | 39.1 (inactive)
25 | O=C1C=CC(=O)N1N(c1ccccc1)c1ccccc1 | 23.9 (inactive)
26 | Cc1cc(C)c(S(=O)(=O)ON2C(=O)c3ccccc3C2=O)cc1C | 25.8 (inactive)
27 | Cc1ccc(C(=O)/C=C/C(=O)c2ccc(C)cc2)cc1 | 47.5 (inactive)
28 | Cc1cc(O)c(C(=O)/C=C/c2c(F)c(F)c(F)c(F)c2F)c(=O)o1 | 26.6 (inactive)
29 | COc1cccc(C(=O)Nc2nnc(-c3ccc(Cl)cc3)o2)c1 | 35.5 (inactive)
30 | CSC1=NS(=O)(=O)c2c(C)nn(C)c2S1 | 35.2 (inactive)
